Data taken from patent publication US20240398767A1, “INHIBITORS OF THE MTDH-SND1 PROTEIN COMPLEX FOR CANCER THERAPY” (The Trustees of Princeton University, priority 2021, published 2024).

Columns and labels:
[1] = tested on: PyMT tumorspheres; assay: PyMT tumorsphere viability, apoptosis, cell cycle and western blot; type: cell-based, mouse
Description: FIG. 14A, Spheres were treated with vehicle or indicated concentrations of C26-A6 for 1 week. The viability of the spheres was then quantified by MTT assay.
For FIGS. 14B-14I, similar sphere assay as in FIG. 14A was performed. n≥3 independent experiments. Data represent mean±SEM and significance determined by two tailed Student's t-test for all panels in FIGS. 14B-14I.
FIG. 15C, Sphere assay was performed and treated with vehicle and C26-A6 as in FIG. 14A. The spheres were collected for western blot to analyze the expression of the candidates.
To obtain insights into the molecular mechanism underlying C26-A6 treatment-induced reduction of cell viability and increase of apoptosis, in vitro sphere assays were employed. […] To further explore the downstream effectors of tumor-suppressive response to C26-A6, GSEA analysis of PyMT tumor with or without C26-A6 treatment was performed.

[2] = molecular target: T1, MTDH-SND1 interaction (Homo sapiens, UniProt Q7KZF4); assay: Co-immunoprecipitation (Co-IP) in SCP28 lysates with anti-MTDH antibody, Western blot for SND1; type: binding; conditions: 500 μM, SCP28 lysate
T1 construct: endogenous in cells; host or cells: SCP28 cells (lysate)
T1 sequence (Q7KZF4 2-910 limits assumed): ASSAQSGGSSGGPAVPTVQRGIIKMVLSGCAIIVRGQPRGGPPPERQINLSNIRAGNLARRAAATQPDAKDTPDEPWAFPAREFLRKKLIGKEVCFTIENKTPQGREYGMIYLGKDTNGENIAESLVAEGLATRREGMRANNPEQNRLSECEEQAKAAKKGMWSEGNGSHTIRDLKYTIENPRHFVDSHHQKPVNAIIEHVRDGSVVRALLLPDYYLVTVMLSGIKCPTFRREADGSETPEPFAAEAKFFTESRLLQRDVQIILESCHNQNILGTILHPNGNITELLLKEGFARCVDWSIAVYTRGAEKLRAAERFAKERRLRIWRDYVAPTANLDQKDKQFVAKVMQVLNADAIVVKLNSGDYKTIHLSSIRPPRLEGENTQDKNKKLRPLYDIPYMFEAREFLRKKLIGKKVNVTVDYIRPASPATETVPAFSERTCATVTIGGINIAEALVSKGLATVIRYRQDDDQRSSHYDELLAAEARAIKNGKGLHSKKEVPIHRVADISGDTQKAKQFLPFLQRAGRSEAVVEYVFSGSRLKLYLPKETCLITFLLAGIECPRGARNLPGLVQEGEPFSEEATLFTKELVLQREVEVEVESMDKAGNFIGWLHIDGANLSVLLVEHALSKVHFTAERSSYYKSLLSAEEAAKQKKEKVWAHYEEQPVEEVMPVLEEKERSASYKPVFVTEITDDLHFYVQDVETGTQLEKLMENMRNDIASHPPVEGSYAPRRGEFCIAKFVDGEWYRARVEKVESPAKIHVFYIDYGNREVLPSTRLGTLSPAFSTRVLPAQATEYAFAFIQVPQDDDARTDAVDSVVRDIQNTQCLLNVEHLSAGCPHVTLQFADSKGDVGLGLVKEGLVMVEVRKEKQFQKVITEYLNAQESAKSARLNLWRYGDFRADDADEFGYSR
Description: FIG. 3F, SCP28 cells grown confluent in each 10-cm dish were lysed with 1 ml IP lysis buffer. 500 μM of the compounds were added into each 1 ml of the samples and IP lysis buffer with 2 μg of anti-MTDH antibody. Western blot was then performed to detect SND1 that binds to MTDH.
FIG. 10E, Schematic diagram of Co-IP based confirmation of MTDH-SND1 inhibitory compounds (left). SCP28 cells were lysed for IP assay.2 μg of MTDH antibody together with 500 μM of MTDH wild type (Pep-WT) or mutant (Pep-MT) peptides were added into each 1 ml of samples. Red star indicates wild type MTDH peptide competing off SND1 that binds to MTDH.
Co-immunoprecipitation assay (Co-IP), which is a commonly used standard test to determine protein-protein interaction, was next employed to validate the candidates. Lysates of breast cancer cell line SCP28, a single cell-derived subline from the MDA-MB-231 TNBC cell line^25, was immunoprecipitated with anti-MTDH antibody alone or together with inhibitors (FIG. 3F and FIG. 10E). The samples were then incubated with Protein-A/G beads to pull down MTDH, followed by Western blot analysis to detect SND1. […] Using multiple screening and validation platforms, two classes of compounds, C26s and C32s, were obtained that inhibit MTDH-SND1 interaction.
Immunoprecipitation (IP) and western blotting (WB) analysis. For IP experiment, samples were prepared as previously described^32. 100 μl of the supernatant was transferred to a new tube as input, and the rest was incubated with 2 μg of IgG, anti-Myc (Santa Cruz, SC-40), or anti-MTDH (ThermoFisher, 40-6500) (as indicated in each experiment) overnight at 4° C. (small chemical compounds may be added at this step as indicated in each experiment). The rest standard IP procedures were performed as previously noted^32. […]

[3] = molecular target: T2, MTDH-SND1 interaction in SCP28 tumors (Homo sapiens, UniProt Q7KZF4); assay: In vivo split-luciferase bioluminescence in SCP28 tumors; set-up: species or system NSG female mice; conditions: 0.25 mg or 0.5 mg via tail-vein injection, 30 min after treatment
T2 construct: SND1-NLuc and CLuc-MTDH flanked by BamH 1 and Not 1 restriction sites were inserted into pcDNA3.1 and pRVPTO (retrovrial) vectors; expressed in transfected cells; host or cells: SCP28 cells stably transduced with pRVPTO retroviral vectors (packaged in H29 cells); in culture (A5) or as orthotopic tumours in NSG mice (A11)
Description: FIG. 12A, NSG female mice were inoculated with 10 k of SCP28 cells that express split-luciferase components by MFP injection. Two weeks after injection, the mice were treated with 0.25 mg/mouse or 0.5 mg/mouse of C26-A6 via tail-vein injection. 30 min after the treatment, luciferase activity at primary tumors was measured.
FIG. 12B, Luciferase activity at primary tumors from mice in FIG. 12A. Data represent mean±SEM. n=3 mice. Significance determined by one-way ANOVA analysis with Dunnett's test for multiple comparisons.
To test the in vivo blocking effect of C26-A6 on MTDH-SND1 interaction, mice with SCP28 tumors that stably express split-luciferase components were treated with vehicle, 0.25 mg or 0.5 mg of C26-A6 via tail-vein injection followed by bioluminescence imaging.

T2 sequence (Q7KZF4 with tags, fused parts or gaps): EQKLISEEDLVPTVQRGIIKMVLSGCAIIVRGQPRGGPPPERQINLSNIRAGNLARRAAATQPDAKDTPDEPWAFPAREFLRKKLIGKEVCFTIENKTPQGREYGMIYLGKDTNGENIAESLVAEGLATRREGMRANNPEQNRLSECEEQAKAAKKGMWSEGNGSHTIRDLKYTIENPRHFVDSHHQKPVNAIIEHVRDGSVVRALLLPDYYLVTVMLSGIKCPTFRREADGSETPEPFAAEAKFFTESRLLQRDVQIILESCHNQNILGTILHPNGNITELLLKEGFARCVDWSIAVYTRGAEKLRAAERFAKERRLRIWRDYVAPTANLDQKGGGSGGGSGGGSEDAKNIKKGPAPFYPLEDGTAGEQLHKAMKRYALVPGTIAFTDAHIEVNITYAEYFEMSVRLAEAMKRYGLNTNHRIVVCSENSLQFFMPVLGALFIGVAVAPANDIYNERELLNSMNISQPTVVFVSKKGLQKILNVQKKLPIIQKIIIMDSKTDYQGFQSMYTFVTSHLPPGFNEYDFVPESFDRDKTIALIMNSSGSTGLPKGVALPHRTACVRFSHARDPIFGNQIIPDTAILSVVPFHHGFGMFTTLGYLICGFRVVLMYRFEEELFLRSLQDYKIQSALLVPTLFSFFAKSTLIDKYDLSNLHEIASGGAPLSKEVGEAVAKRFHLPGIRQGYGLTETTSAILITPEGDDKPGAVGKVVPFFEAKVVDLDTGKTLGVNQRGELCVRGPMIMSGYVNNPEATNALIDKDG

## COc1ccc(Cl)cc1S(=O)(=O)Nc1cccn2nc(C)nc12 [Analog C26-A6]
[1]
  Cdc20, Plk1, and c-Myc expression (western blot): down-regulated
[1]; 200 μM
  cell cycle status: induced G2/M cell cycle arrest
  survival (live cells, apoptosis): significantly reduced survival
[1]; indicated concentrations, 1 week
  sphere viability (MTT assay), tumorspheres versus MECs: more susceptible
[2]
  MTDH-SND1 interaction (SND1 that binds to MTDH, Co-IP): strongest inhibitory effects
[3]
  MTDH-SND1 interaction in vivo (luciferase activity at primary tumors): blocks MTDH-SND1 interaction in vivo in a dose-dependent manner

## COc1ccc(Cl)cc1S(=O)(=O)Nc1cccn2ncnc12 [Analog C26-A2]
[2]
  MTDH-SND1 interaction (SND1 that binds to MTDH, Co-IP): strongest inhibitory effects
